US8653271B2 (priority 2006, dated 2014)
Values joined by “and” are separate entries in the source; they are usually repeats but may differ in a detail not shown here. Equal values may be shown once.

Tests used:
[1] = type: physicochemical; details: isotonic phosphate buffer pH 7.4, 32° C.
Method: Equal amounts of the each of the codrug were distributed into labeled test-tubes (20 nmol in each tube). Care was taken to ensure that the entire codrug was dissolved and the solution remained clear. Hydrolysis of the carbonate codrug (˜20 nmol) was conducted in isotonic phosphate buffer pH 7.4 at 32° C. in a water-bath with continuous stirring. […] Samples were collected at predetermined time intervals and stored in the freezer at −20° C. until analyzed. All experiments were conducted in triplicate. An aliquot part (250 μL) of hydrolysis solutions was mixed with 750 μL of acetonitrile, vortexed for 30s, and analyzed by HPLC for the presence of codrug and the two corresponding parent drugs, as well as for the intermediate hydrolysis product, 23. […] A Brownlee C18 reversed-phase Spheri-5 μm column (220×4.6 mm) connected to a C18 reversed-phase guard column (15×3.2 mm) was utilized and detection of solutes was carried out at 215 nm. The mobile phase consisted of a mixture of acetonitrile: 0.1% trifluoroacetic acid adjusted to pH 3.0 with triethylamine (50:50, v/v). The mobile phase flow rate was 1.5 mL/min and 100 μL of hydrolysis sample was injected onto the column.

physchem = type: physicochemical; details: for Light mineral oil solubility: 32° C., 48 h equilibration (Table 3); for Hanks' buffer solubility: pH 7.4, 32° C., 30 min sonication
Method: The solubilities of CB-NTXOL-BUPOH, hydroxybupropion, and 6-β-naltrexol were determined by adding excess quantity of drug to mineral oil or pre-warmed HEPES-buffered Hanks' salt solution pH 7.4 at 32° C. (skin surface temperature), with equilibration while shaking in a water bath at 60 rpm. Weighing 4 mg of each of the drugs and placing them in 1 ml of each of the respective solvents was enough to ensure that there was excess drug in solution. Samples were drawn into a pre-warmed glass syringe, filtered through a syringe filter (Mineral oil: Millex FG-13, Millipore, Billerica, Mass., USA, and buffer: nylon filter, Gelman, East Hills, N.Y., USA), and measured with respect to volume and diluted with an appropriate volume of acetonitrile or buffer. The drug from the buffer samples was immediately extracted by solid phase extraction as described above. Drugs in mineral oil were diluted with a hundred-fold volume of acetonitrile and extraction recoveries were >95% for all the drugs. The sampling procedure was done in triplicate, discarding the first 40% of the initial filtrate. […]. For buffer solubilities, samples were taken after 30 min of sonication (to minimize the hydrolysis of the codrug). No significant difference was found between 30 min sonication solubility measurements and equilibrium solubility measurements taken after 48 h for 6-β-naltrexol.

[2] = Permeation studies in guinea pigs in vivo (topical gel, plasma pharmacokinetics); parameters: species or system hairless guinea pigs; details: for Enhancement factor (delivery of 6-β-naltrexol in vivo): codrug gel versus 6-β-naltrexol base gel, guinea pigs; for intact codrug in guinea pig plasma after topical application: in vivo plasma samples; for Tlag of 6-β-naltrexol: lag time to steady-state; for Tlag of 6-β-naltrexol / AUC0-48 of 6-β-naltrexol / Cmax of 6-β-naltrexol / Tmax of 6-β-naltrexol / Observed CSS of 6-β-naltrexol: topical gel; for Tlag of 6-β-naltrexol / Cmax of 6-β-naltrexol / Tmax of 6-β-naltrexol / Observed CSS of 6-β-naltrexol: hairless guinea pigs; for AUC0-48 of 6-β-naltrexol / Cmax of 6-β-naltrexol / Tmax of 6-β-naltrexol: plasma; for AUC0-48 of 6-β-naltrexol: 14.5 cm^2, hairless guinea pigs; for Observed CSS of 6-β-naltrexol: steady-state plasma concentration, 48 h
Method: A hydroxyethyl cellulose-based gel was prepared for topical application. First, either CB-NTXOL-BUPOH or 6-β-naltrexol (˜25 mg each) was dissolved in 1 ml of PG:buffer, pH 7.4 (2:3, v/v) solution using a magnetic stirrer. Hydroxyethyl cellulose (2%, w/w) was dispersed into these mixtures, sonicated, vortexed, and allowed to form a gel at room temperature. The drug in each formulation was saturated, forming a suspension.
Male and female Hairless IAF and Hartley guinea pigs (Charles River) weighing 345-482 g were used for topical studies (n=5 to 6 per treatment group). Prior to surgery, the animals were treated with glycopyrrolate and buprenorphine (to induce analgesia), and then ketamine (100 mg/kg, i.p.) and xylazine (8 mg/kg, i.m.) were used for anesthetic purposes. Catheters were surgically implanted into the jugular vein. A “blank” baseline plasma sample was drawn from each animal immediately before drug treatment. 500 μL of the gel containing the drug was applied onto the dorsal region of the guinea pig with a syringe and subsequently spread to cover an area of 7.25 cm^2. A rubber ring fitted with a drug-impermeable backing laminate (MEDIFLEX® 1502) was used to enclose the area of gel application. ARcare® acrylic adhesive was used to ensure that the ring maintained contact with the skin. Additionally, a bio-occlusive tape was placed over the patches to further secure the formulation on the guinea pigs. Drug formulations were applied on both sides of each guinea pig to give a total application area of 14.5 cm^2. Plasma samples were obtained at predetermined time intervals, which included 48 h while the formulations were on the animal, and for another 48 h after patches and formulations were removed. Blood samples were immediately centrifuged at 10,000×g for 3 min, and the plasma was separated. Plasma samples were stored at −70° C. until analysis by liquid chromatographic mass spectrometry, LC-MS.
Topical administration data were analyzed by non-compartmental analysis to determine mean steady-state plasma concentration (CSS), lag time to steady-state (tlag), and area under the curve from 0 to 48 h, AUC0-48.

[3] = mice, versus naloxone and naltrexone; cited from earlier work
[4] = humans, systemic circulation after oral dose of NTX; cited from earlier work
[5] = previous experiments; cited from earlier work
[6] = tested on: electrically-stimulated guinea pig ileum; details: in vitro; cited from earlier work

Row | SMILES | first-order rate constant k2 ([1]; generation of BUPOH via intermediate from codrug 26) | first-order rate constant k1 ([1]; hydrolysis at carbonate linker generating NTX (25) or NTXOL (26)) | Light mineral oil solubility (physchem) | Hanks' buffer solubility (physchem) | Enhancement factor (delivery of 6-β-naltrexol in vivo) [2] | intact codrug in guinea pig plasma after topical application ([2]; listed as CB-NTXOL-BUPOH) | intact codrug in guinea pig plasma after topical application ([2]; listed as codrug) | Tlag of 6-β-naltrexol [2] | AUC0-48 of 6-β-naltrexol [2] | Cmax of 6-β-naltrexol [2] | Tmax of 6-β-naltrexol [2] | Observed CSS of 6-β-naltrexol ([2]; listed as CB-NTXOL-BUPOH) | Observed CSS of 6-β-naltrexol ([2]; listed as codrug) | in vivo potency of an acute dose [3] | half-life [4] | flux and other in vitro permeation parameters, guinea pig skin relative to human skin [5] | Observed CSS of 6-β-naltrexol [2] | Observed CSS of 6-β-naltrexol ([2]; listed as NTXOL) | potency relative to naloxone [6] | potency relative to naltrexone [6]
1 | Cc1c(-c2cccc(Cl)c2)oc(=O)n1C(C)(C)COC(=O)Oc1ccc2c3c1OC1C(O)CCC4(O)C(C2)N(CC2CC2)CCC314 (stereo not drawn) [Compound 26] | 0.0139 ± 0.0006 h⁻¹ | 0.0240 ± 0.0007 h⁻¹ | 2880 µM | 530 µM | five-fold | only trace amounts of intact codrug | Only trace amounts | 5.0 ± 1.1 h | 282.0 ± 14.5 ng·h/mL | 6.6 ± 0.4 ng/mL | 10.1 ± 0.9 h | 6.4 ng/mL and 6.4 ± 0.9 ng/mL | 6.40 ± 0.93 ng/mL | – | – | – | – | – | – | –
2 | Oc1ccc2c3c1O[C@H]1[C@H](O)CC[C@@]4(O)[C@@H](C2)N(CC2CC2)CC[C@]314 [Compound 2, 6-β-naltrexol] | – | – | 30 µM | 300 µM | 1 | – | – | 5.1 ± 0.7 h | 66.4 ± 7.9 ng·h/mL | 1.5 ± 0.2 ng/mL | 28.1 ± 1.5 h | – | – | less than the other two antagonists | about 12 h | 5.6 fold | 1.25 ± 0.51 ng/mL and 1.2 ng/mL | 1.2 ± 0.5 ng/mL | 4.5 fold | 2.8 fold
